Data as given in publication PMC6361973, “The NOP-1 peptide derived from the central regulator of ethylene signaling EIN2 delays floral senescence in cut flowers” (Scientific Reports, 2019).

Legend:
[1] = molecular target: Dianthus caryophyllus ethylene receptor DcETR1 (Dianthus caryophyllus); assay: MST; NOP-1 unlabelled, titrated from 100 µM to 3 nM in 100 mM potassium phosphate buffer, 300 mM NaCl, 0.015% FosCholine-16, to 50 nM Alexa488-labelled DcETR1; Monolith NT.115, 50% MST power; triplicates
ethylene biosynthesis = details: cited from earlier work
Source text: Consequently, a number of commercial products based o ...

flower senescence = details: cited from earlier work; for prevention of the effects of exogenous ethylene on flower senescence: during transport and storage
[2] = test system: cut carnations (Dianthus caryophyllus); assay: Senescence / vase life of cut carnations; format: in vivo
Source text: To clarify whether NOP-1 also has the potential to serve as an inhibitor of senescence in cut flowers, we applied the peptide on cut carnations (Dianthus caryophyllus) and analyzed the effect on floral senescence in this model ethylene response system[9],[13],[17],[30]. In analogy to treatment with the chemical senescence inhibitor STS containing silver ions as active ingredient which target plant ethylene receptors[31] the peptide was directly supplied to the vase water. Senescence was monitored visually throughout the experiment and quantified by changes observed in petal size and/or color (Fig. 1A,B). […] To further substantiate the effect of the peptide biological on floral senescence observed with the carnation model system, we used roses as another species of highly ethylene sensitive ornamental plants. […] The untreated controls completely ended their vase life on day 9 due to these morphological changes.
Figure 1 Effect of small molecule inhibitors of ethylene signaling on flower senescence of cut carnations. (A) Visual images of carnation cut flowers treated with senescence inhibitor silver nitrate or peptide NOP-1. Representative photos of carnation petals treated with 1 mM silver nitrate or 0.5 mM NOP-1 on DAT 0, 3, 6, 9, 12 and 15. […] (B) Quantitative analysis of flower size (left) and petal color change (right) of carnation flowers after treatment with silver salt, NOP-1 peptide or buffer-only. […]
Cut flowers of carnations (Dianthus caryophyllus) and rose (Rosa hybrida), graded for marketable quality, were obtained from a local flower producer. […] Progression of senescence was recorded photographically for a period of 15 days. […] Changes in petal size and color were quantified using ImageJ (32 bit v1.51t.). Relative discoloration of petals was quantified by drawing multiple lines across each flower (petals only) and calculating the average values for red (R), green (G) and blue (B). […] Relative size of flowers was quantified using a macro that specifically recognizes the flower (petals + sepals) but not the flower stem with flower size in pixel² as the output. […]

cut roses (Rosa hybrida) = assay: Senescence / vase life of cut roses; format: in vivo; details: 1 mM silver nitrate or 0.5 mM NOP-1 in vase water; untreated controls ended vase life on day 9; six flowers per treatment
Source text: To clarify whether NOP-1 also has the potential to serve as an inhibitor of senescence in cut flowers, we applied the peptide on cut carnations (Dianthus caryophyllus) and analyzed the effect on floral senescence in this model ethylene response system[9],[13],[17],[30]. In analogy to treatment with the chemical senescence inhibitor STS containing silver ions as active ingredient which target plant ethylene receptors[31] the peptide was directly supplied to the vase water. Senescence was monitored visually throughout the experiment and quantified by changes observed in petal size and/or color (Fig. 1A,B). […]
Figure 2 Effect of small molecule inhibitors of ethylene signaling on flower senescence of cut roses. […] (B) Quantitative analysis of color change in petals after treatment with silver salt, NOP-1 peptide or buffer-only. […]
Cut flowers of carnations (Dianthus caryophyllus) and rose (Rosa hybrida), graded for marketable quality, were obtained from a local flower producer. […] Progression of senescence was recorded photographically for a period of 15 days. […] Changes in petal size and color were quantified using ImageJ (32 bit v1.51t.). Relative discoloration of petals was quantified by drawing multiple lines across each flower (petals only) and calculating the average values for red (R), green (G) and blue (B). […]

[3] = molecular target: Dianthus caryophyllus ethylene receptor DcETR1 (Dianthus caryophyllus); assay: MST; AtEIN2^479-1294 unlabelled, titrated from 1457.5 nM to 0.7 nM in 50 mM potassium phosphate (pH 7.8), 300 mM NaCl, 0.015% FosCholine-16, to 50 nM Alexa488-labelled DcETR1; Monolith NT.115, 60% MST power; triplicates
[4] = test system: carnation ethylene receptor DcETR1; assay: Microscale thermophoresis binding to carnation ethylene receptor DcETR1; parameters: species or system Dianthus caryophyllus; details: MST; denatured using 2% (w/v) SDS and 40 mM DTT in the assay buffer; triplicates
Source text: To elucidate the mode of action of NOP-1 on flower senescence and to determine whether the peptide biological works by the same molecular mechanism as determined for NOP-1 controlled ripening delay, we initiated interaction studies of the carnation ethylene receptor DcETR1, the central regulator of the ethylene signaling cascade EIN2 and the NOP-1 peptide. To this end, DcETR1 was cloned in E. coli, expressed and purified according to protocols established in our lab[32] for ethylene receptors from Arabidopsis thaliana, Physcomitrella patens, tomato and apple (Supplementary Fig. S1). […] To determine binding affinity and dissociation constants of the purified recombinant proteins and the NOP-1 peptide we used microscale thermophoresis. […] Consequently, targeting this interaction by small-molecule modulators has the potential to shut down ethylene signaling and related plant responses. Therefore, we tested binding of the ripening delaying peptide NOP-1 identified in previous studies to target the ETR1-EIN2 complex with our purified carnation receptor DcETR1. […] The precise interaction site of NOP-1 at the Arabidopsis ETR1 receptor was recently resolved in our lab by molecular and computational studies. […]

[5] = literature, reference not given

Dianthus caryophyllus ethylene receptor DcETR1 (Dianthus caryophyllus), sequence (Q9M7M1 other isoform, or with tags, fused parts or gaps): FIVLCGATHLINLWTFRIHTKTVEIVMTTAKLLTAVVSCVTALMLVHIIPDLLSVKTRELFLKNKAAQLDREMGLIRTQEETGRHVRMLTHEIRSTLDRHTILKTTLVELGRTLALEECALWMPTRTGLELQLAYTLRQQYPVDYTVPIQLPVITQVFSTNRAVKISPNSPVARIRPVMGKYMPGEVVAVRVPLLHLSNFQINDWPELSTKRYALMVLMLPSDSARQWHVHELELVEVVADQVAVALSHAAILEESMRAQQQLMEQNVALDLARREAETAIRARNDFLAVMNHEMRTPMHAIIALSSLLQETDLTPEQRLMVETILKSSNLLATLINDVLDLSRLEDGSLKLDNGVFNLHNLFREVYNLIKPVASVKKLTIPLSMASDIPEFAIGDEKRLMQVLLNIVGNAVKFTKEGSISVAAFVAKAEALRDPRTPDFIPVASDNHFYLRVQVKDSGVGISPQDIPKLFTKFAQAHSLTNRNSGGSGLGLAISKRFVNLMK

NOP-1 peptide showed a Kd [1] of 3490 nM.

For `NOCC(=O)O` [AOA, amino-oxyacetic acid], the “blocking of ethylene production that accompanies senescence” value (ethylene biosynthesis) is listed as “effective in blocking ethylene production” and the “prevention of the effects of exogenous ethylene on flower senescence” value (flower senescence; [5]) is listed as “ineffective”.

In the case of `O=[N+]([O-])[O-].[Ag+]` [silver salt, silver nitrate], the “efficacy compared with the other treatment, cut carnations (in words)” value ([2]; 0.5 mM NOP-1 vs 1 mM silver salt (AgNO3), entire trial period) is reported as “noticeably more efficient in extending the vase life of cut carnations than the peptide biological”, the “signs of petal senescence after 15 days, cut carnations” value ([2]; 1 mM silver salt (AgNO3) in vase water, 50 mM Tris/Acetic acid pH 8, 15 days, six flowers) is reported as “almost no signs of senescence after 15 days” and the “delay of petal senescence in cut carnations (in words)” value ([2]; 1 mM silver salt (AgNO3) in vase water, 50 mM Tris/Acetic acid pH 8, six flowers, vs buffer controls senescent after 6 days) is reported as “delays the appearance of these morphological manifestations by several days”. The “prolongation of vase life relative to buffer controls, cut roses” value (cut roses (Rosa hybrida)) was 6 to 8 days.

In the case of `CC1=CC1` [1-MCP, 1-methylcyclopropene], the “inhibition of ethylene action at 0 °C” value (flower senescence; 0 °C) is listed as “almost no inhibition”, the “inhibition of ethylene action at 20 °C” value (flower senescence; 20 °C) is listed as “complete inhibition” and the “delay of flower senescence on daily application” value (flower senescence; applied on a daily basis, gaseous) is listed as “significantly delayed flower senescence”. For the same molecule, the “effect of repetitive treatments on vase life and floral senescence of cut flowers” value (flower senescence; repetitive treatments with the gaseous inhibitor) was “marked increase in vase life and efficiently blocked floral senescence of cut flower”, the “duration of senescence control compared with silver ions” value (flower senescence; single treatment, literature, reference not given) was “does not control senescence for as long as silver ions” and the “efficiency as ethylene action inhibitor” value (flower senescence; very small concentrations) was “highly efficient at very small concentrations”.

In the case of `NCCO/C=C/[C@H](N)C(=O)O` [AVG, amino-ethoxyvinyl glycine], the “blocking of ethylene production that accompanies senescence” value (ethylene biosynthesis) is listed as “effective in blocking ethylene production” and the “prevention of the effects of exogenous ethylene on flower senescence” value (flower senescence; [5]) is listed as “ineffective”.

B1: AtEIN2^479-1294 (domain or fragment)
chain: NALSYPSVQEEEIERTETRRNEDESIVRLESRVKDQLDTTSVTSSVYDLPENILMTDQEIRSSPPEERELDVKYSTSQVSSLKEDSDVKEQSVLQSTVVNEVSDKDLIVETKMAKIEPMSPVEKIVSMENNSKFIEKDVEGVSWETEEATKAAPTSNFTVGSDGPPSFRSLSGEGGSGTGSLSRLQGLGRAARRHLSAILDEFWGHLYDFHGQLVAEARAKKLDQLFGTDQKSASSMKADSFGKDISSGYCMSPTAKGMDSQMTSSLYDSLKQQRTPGSIDSLYGLQRGSSPSPLVNRMQMLGAYGNTTNNNNAYELSERRYSSLRAPSSSEGWEHQQPATVHGYQMKSYVDNLAKERLEALQSRGEIPTSRSMALGTLSYTQQLALALKQKSQNGLTPGPAPGFENFAGSRSISRQSERSYYGVPSSGNTDTVGAAVANEKKYSSMPDISGLSMSARNMHLPNNKSGYWDPSSGGGGYGASYGRLSNESSLYSNLGSRVGVPSTYDDISQSRGGYRDAYSLPQSATTGTGSLWSRQPFEQFGVAERNGAVGEELRNRSNPINIDNNASSNVDAEAKLLQSFRHCILKLIKLEGSEWLFGQSDGVDEELIDRVAAREKFIYEAEAREINQVGHMGEPLISSVPNCGDGCVWRADLIVSFGVWCIHRVLDLSLMESRPELWGKYTYVLNRLQGVIDPAFSKLRTPMTPCFCLQIPASHQRASPTSANGMLPPAAKPAKGKCTTAVTLLDLIKDVEMAISCRKGRTGTAAGDVAFPKGKENLASVLKRYKRRLSNKPVGMNQDGPGSRKNVTAYGSLG
With B1 the Kd [3] was 136 nM and the “interaction with chemically denatured DcETR1 (negative control)” value [4] was “no interaction”.
